Experimental findings from article PMC11151152, “Chemoproteomics enables identification of coatomer subunit zeta‐1 targeted by a small molecule for enterovirus A71 inhibition” (MedComm, 2024) are described below.

Assay [1] concerns the target T1, COPZ1^7-150 (truncated human coatomer subunit zeta-1) (Homo sapiens, UniProt P61923).
T1 construct: E. coli BL21(DE3), pET-28a(+)
T1 sequence (P61923 7-150): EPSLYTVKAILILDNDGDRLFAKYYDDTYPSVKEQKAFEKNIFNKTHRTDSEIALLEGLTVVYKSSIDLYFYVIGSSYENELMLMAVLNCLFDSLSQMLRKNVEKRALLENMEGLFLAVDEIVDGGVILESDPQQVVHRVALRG
The assay is described as follows: SPR, CM5 chip, COPZ1 immobilised. It is filed as binding. On the technique in general: In SPR one partner is held on a chip, and binding of the other changes the refractive index at the surface.

Assay [2] has as its target T2, COPZ1 (endogenous, in EV-A71-infected RD cells) (Homo sapiens, UniProt P61923).
T2 sequence (P61923 1-177): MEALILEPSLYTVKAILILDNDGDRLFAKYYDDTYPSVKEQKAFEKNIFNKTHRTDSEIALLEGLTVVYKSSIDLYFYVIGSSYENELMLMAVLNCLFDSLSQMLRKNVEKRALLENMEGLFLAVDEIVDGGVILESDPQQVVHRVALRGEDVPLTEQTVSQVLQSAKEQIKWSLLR
Nature of the assay: competition against MPA-P photoaffinity labelling, pulldown / western blot. As to conditions: competitor of photoaffinity probe MPA-P. It is filed as cell-based.

Assay [3] deals with T1, COPZ1^7-150 (truncated human coatomer subunit zeta-1). The assay is described as follows: fluorescence thermal shift assay (Sypro Orange). Conditions: 10 µM compound; 4 µM protein; 20 mM HEPES, 150 mM NaCl, pH 7.5. In kind it is binding.
For assay [4], the target named is T2, COPZ1 (endogenous, in EV-A71-infected RD cells). The assay is described as follows: photoaffinity labelling in cells, pulldown / western blot. It is filed as cell-based. As to conditions: covalent (diazirine photo-crosslinking, 365 nm).

One may read the Kd as the equilibrium constant for the complex coming apart. A high value points to a looser complex. `O=C(c1ccc(C(F)(F)F)cc1O)c1[nH]c(Cl)c(Cl)c1-n1c(C(=O)c2ccc(C(F)(F)F)cc2O)cc(Cl)c1Cl` [MPA-CF3] came in with a Kd in assay [1] of 24 nM. For the same molecule, the “competition against MPA-P photoaffinity labelling, pulldown / western blot” value in assay [2] is recorded as “implying that MPA‐CF3 specifically binds to COPZ1 in intact cells”. Also, the ΔT m in assay [3] was −3.6 °C.
As to `C#CCCC1(CCSc2c(Cl)cc(C(=O)c3ccc(C(F)(F)F)cc3O)n2-c2c(C(=O)c3ccc(C(F)(F)F)cc3O)[nH]c(Cl)c2Cl)N=N1` [MPA-P], the “photoaffinity labelling in cells, pulldown / western blot” value in assay [4] was “labeling intensity of COPZ1 by MPA‐P in EV‐A71‐infected RD cells”.
